Experimental data as given in patent US20260068882A1, “ARTHROPOD CONTROLLING COMPOSITION” (Firmenich SA, priority 2019, published 2026).
Like-named read-outs stand apart in the source and are kept apart here.

Legend:
Aedes aegypti = test: In vitro Warm Body assay, mosquitoes landing on treated warm body; type: in vivo; settings: for repellent effect with increasing amount of stimuli (in words): 0.0016%, 0.04% and 1% in ethanol (FIG. 10)
Protocol: (§1) The arthropod controlling effect according to the present invention is determined on mosquitoes using an adapted Warm Body assay as defined in Kröber T, Kessler S, Frei J, Bourquin M, Guerin P M. An in vitro assay for testing mosquito controlling compounds employing a warm body and carbon dioxide as a behavioral activator. J Am Mosq Control Assoc. 2010; 26:381-386.
(§2) The controlling effect according to the present invention is determined by testing the Warm Body assay against the yellow fever mosquito, Aedes aegypti Rockefeller strain. […] Observations of controlling efficacy were made on host-seeking females of uniform age, 5 to 10 days old selected as mentioned in the publication mentioned hereinabove. Tested hungry females had access to 10% sugar solution but were not blood-fed.
(§3) The published protocol has been adapted in not manually counting the landing mosquitoes but automatically using an automatic counting software, the switch from Anopheles gambiae to A. aegypti led to a decrease of mosquitoes' number placed in the tested cage due to the size difference (i.e. 30 mosquitoes instead of 50) and to an increase of lighting as A. aegypti is a diurnal mosquitoes (i.e. 150 lux instead of 4 lux).
as §2, with “A.” for “Aedes”
as §1, with “The” for “The arthropod”, “was assessed” for “is determined on mosquitoes”
as §3, with “Aedes” for “A.”
In this in-vitro assay the number of A. aegypti landing on a warm body treated with the tested stimuli was measured in order to assess the repellency effect. Three replicates were carried on the three different doses: 0.0016%, 0.04% and 1% in ethanol, using 25 A. aegypti 10-12 days old females per cage.
In this in-vitro assay, the number of Aedes aegypti landing on a warm body treated with the tested stimuli was measured in order to assess the repellency effect. Three replicates were carried on the three different doses: 0.0016%, 0.04% and 1% in ethanol.
In this in-vitro assay, the number of Aedes aegypti landing on a warm body treated with the tested stimuli was measured in order to assess the repellency effect. One replicate was carried at different doses ranging from 0.0016% up to 1% in ethanol.

Ixodes ricinus = test: In vitro Warm Plate Assay for ticks; type: in vivo
Protocol: Repellent efficacy of the different compounds was assessed against the sheep tick, Ixodes ricinus. I. ricinus is one of the recommended model organisms mentioned by the Guidance on the European Biological Products Regulation [Vol II, Efficacy-Assessment & Evaluation (Parts B+C), v. 3.0, April 2018]. Observations of repellent efficacy were made on last stage nymphs.
The repellent efficacy was assessed using the protocol of the in-vitro Warm Plate Assay as defined in Kröber T, Bourquin M, Guerin P M. A standardized in vivo and in vitro test method for evaluating tick repellents. Pesticide Biochemistry and Physiology. 2013; 107 (2): 160-168.].
The mean±SD number of ticks Ixodes ricinus walking down (affected), falling (affected) or walking-up (non affected) from the warm plate treated with ethanol, N,N-diethyl-3-methylbenzamide, (2,5-dimethyl-2,3-dihydro-1H-inden-2yl)methanol (Ingredient 2) or (2,4,6-trimethyl-2,3-dihydro-1H-inden-2-yl)methanol (Ingredient 1) diluted in ethanol at 0.4 mg/ml and 10 mg/mL was assessed on n groups of 12 ticks (n=2-5).
In this in-vitro assay, the percentage of ticks Ixodes ricinus affected by the stimulus loaded on the warm plate was measured in order to assess the repellency effect. Twelve ticks were assessed per concentrations that goes from 0.0016% up to 1% in ethanol.
Using the same in-vitro setup, the effect on ticks behavior (n≥12) of different stimuli diluted in ethanol at 20% (w/w) was assessed overtime.

CC1(CO)Cc2ccc(C(C)(C)C)cc2C1 (racemic) [(+−)-5-tert-butyl-2-methyl-2-indanmethanol] was tested, and the “repellent effect with increasing amount of stimuli (in words)” value (shortened to “repellent effect with increasing amount”) (Aedes aegypti) was “low decrease of landing”, the pest or weed control at 0.0016 % (Ixodes ricinus; Ixodes ricinus, 0.0016% (Table 11), read-out: percentage of ticks affected on the Warm Plate) was 0% and the pest or weed control at 0.04 % (Ixodes ricinus; Ixodes ricinus, 0.04% (Table 11), read-out: percentage of ticks affected on the Warm Plate) was 8%. For the same compound, the pest or weed control at 1 % (Ixodes ricinus; Ixodes ricinus, 1% (Table 11), read-out: percentage of ticks affected on the Warm Plate) was 92%.

c1ccc2c(c1)CC1COCOC21 (centres unmarked) [ingredient #3, 4,4A,5,9B-tetrahydro-indeno[1,2-D]-1,3-dioxin] was tested, and the reduction of landing (Aedes aegypti; 0.0016% (Table 7)) was 5%, the “number of mosquitoes landed on the Warm Body” value (“number of mosquitoes landed” for short) (Aedes aegypti; 0.0016% in ethanol (Table 6)) was 76 and the “number of mosquitoes landed” value (Aedes aegypti; 0.0016% in ethanol (Table 7, one replicate)) was 76. The “number of mosquitoes landed” value (Aedes aegypti; 0.008% in ethanol (Table 7, one replicate)) was 61, the “number of mosquitoes landed” value (Aedes aegypti; 0.0119% in ethanol (Table 7, one replicate)) was 42 and the “number of mosquitoes landed” value (Aedes aegypti; 0.04% in ethanol (Table 6)) was 6. For the same compound, the “number of mosquitoes landed” value (Aedes aegypti; 0.04% in ethanol (Table 7, one replicate)) was 6, the “number of mosquitoes landed” value (Aedes aegypti; 0.0598% in ethanol (Table 7, one replicate)) was 4 and the “number of mosquitoes landed” value (Aedes aegypti; 0.2% in ethanol (Table 7, one replicate)) was 0. The “number of mosquitoes landed” value (Aedes aegypti; 0.447% in ethanol (Table 7, one replicate)) was 2, the “number of mosquitoes landed” value (Aedes aegypti; 1% in ethanol (Table 6)) was 2 and the “number of mosquitoes landed” value (Aedes aegypti; 1% in ethanol (Table 7, one replicate)) was 2. The “percentage of ticks being affected” value (Ixodes ricinus; 0.00032% (Table 9)) was 0%, the “percentage of ticks being affected” value (Ixodes ricinus; 0.00071% (Table 9)) was 8% and the “percentage of ticks being affected” value (Ixodes ricinus; 0.0016% (Table 9)) was 0%. For the same compound, the “percentage of ticks being affected” value (Ixodes ricinus; 0.00357% (Table 9)) was 0%, the “percentage of ticks being affected” value (Ixodes ricinus; 0.0053% (Table 9)) was 0% and the “percentage of ticks being affected” value (Ixodes ricinus; 0.008% (Table 9)) was 0%. For the same compound, the “percentage of ticks being affected” value (Ixodes ricinus; 0.0119% (Table 9)) was 0%, the “percentage of ticks being affected” value (Ixodes ricinus; 0.0178% (Table 9)) was 0% and the “percentage of ticks being affected” value (Ixodes ricinus; 0.0267% (Table 9)) was 0%. The “percentage of ticks being affected” value (Ixodes ricinus; 0.04% (Table 9)) was 13%, the “percentage of ticks being affected” value (Ixodes ricinus; 0.0598% (Table 9)) was 6% and the “percentage of ticks being affected” value (Ixodes ricinus; 0.089% (Table 9)) was 0%. The “percentage of ticks being affected” value (Ixodes ricinus; 0.2% (Table 9)) was 24%, the “percentage of ticks being affected” value (Ixodes ricinus; 0.447% (Table 9)) was 67% and the “percentage of ticks being affected” value (Ixodes ricinus; 1% (Table 9)) was 92%. For the same compound, the “percentage of ticks affected overtime” value (Ixodes ricinus; 20% (w/w) in ethanol, 0.25 h post-application) was 100%, the “percentage of ticks affected overtime” value (Ixodes ricinus; 20% (w/w) in ethanol, 0.5 h post-application) was 92% and the “percentage of ticks affected overtime” value (Ixodes ricinus; 20% (w/w) in ethanol, 1 h post-application) was 8%. The “percentage of ticks affected overtime” value (Ixodes ricinus; 20% (w/w) in ethanol, 2 h post-application) was 17%, the “percentage of ticks affected overtime” value (Ixodes ricinus; 20% (w/w) in ethanol, 4 h post-application) was 15% and the “percentage of ticks affected overtime” value (Ixodes ricinus; 20% (w/w) in ethanol, 6 h post-application) was 33%. For the same compound, the “ticks' repellency overtime (in words)” value (Ixodes ricinus; 20% (w/w) in ethanol, Table 14) was “very effective at the first time points”, the pest or weed control at 0.0016 % (Ixodes ricinus; Ixodes ricinus, 0.0016% in ethanol (Table 12), read-out: percentage of ticks affected on the Warm Plate) was 0% and the pest or weed control at 0.0053 % (Ixodes ricinus; Ixodes ricinus, 0.0053% in ethanol (Table 12), read-out: percentage of ticks affected on the Warm Plate) was 0%. It also gave a pest or weed control at 0.008 % (Ixodes ricinus; Ixodes ricinus, 0.008% in ethanol (Table 12), read-out: percentage of ticks affected on the Warm Plate) of 0%, a pest or weed control at 0.0119 % (Ixodes ricinus; Ixodes ricinus, 0.0119% in ethanol (Table 12), read-out: percentage of ticks affected on the Warm Plate) of 0% and a pest or weed control at 0.0178 % (Ixodes ricinus; Ixodes ricinus, 0.0178% in ethanol (Table 12), read-out: percentage of ticks affected on the Warm Plate) of 0%. The pest or weed control at 0.0267 % (Ixodes ricinus; Ixodes ricinus, 0.0267% in ethanol (Table 12), read-out: percentage of ticks affected on the Warm Plate) was 0%, the pest or weed control at 0.04 % (Ixodes ricinus; Ixodes ricinus, 0.04% in ethanol (Table 12), read-out: percentage of ticks affected on the Warm Plate) was 13% and the pest or weed control at 0.0598 % (Ixodes ricinus; Ixodes ricinus, 0.0598% in ethanol (Table 12), read-out: percentage of ticks affected on the Warm Plate) was 6%. The pest or weed control at 0.089 % (Ixodes ricinus; Ixodes ricinus, 0.089% in ethanol (Table 12), read-out: percentage of ticks affected on the Warm Plate) was 0%, the pest or weed control at 0.2 % (Ixodes ricinus; Ixodes ricinus, 0.2% in ethanol (Table 12), read-out: percentage of ticks affected on the Warm Plate) was 24% and the pest or weed control at 0.447 % (Ixodes ricinus; Ixodes ricinus, 0.447% in ethanol (Table 12), read-out: percentage of ticks affected on the Warm Plate) was 67%. For the same compound, the pest or weed control at 1 % (Ixodes ricinus; Ixodes ricinus, 1% in ethanol (Table 12), read-out: percentage of ticks affected on the Warm Plate) was 92% and the ticks affected (Ixodes ricinus; dose of 0.598%) was 6%.

CC1OC(C)C2Cc3ccccc3C2O1 (stereo not drawn) [(+)-2,4-dimethyl-4,4a,5,9b-tetrahydroindeno[1,2-d][1,3]dioxine + (−)-2,4-dimethyl-4,4a,5,9b-tetrahydroindeno[1,2-d][1,3]dioxine] was tested, and the “number of mosquitoes landed” value (Aedes aegypti; 0.0016% in ethanol (Table 6)) was 58, the “number of mosquitoes landed” value (Aedes aegypti; 0.04% in ethanol (Table 6)) was 37 and the “number of mosquitoes landed” value (Aedes aegypti; 1% in ethanol (Table 6)) was 3.

With CC1(C)OC[C@@]2(C)Cc3ccccc3[C@H]2O1 (racemic) [(4aRS,9bRS)-2,2,4a-trimethyl-4,4a,5,9b-tetrahydroindeno[1,2-d][1,3]dioxine] the “number of mosquitoes landed” value (Aedes aegypti; 0.0016% in ethanol (Table 6)) was 42, the “number of mosquitoes landed” value (Aedes aegypti; 0.04% in ethanol (Table 6)) was 47 and the “number of mosquitoes landed” value (Aedes aegypti; 1% in ethanol (Table 6)) was 2.

With “(1RS,2RS)-2-((2-methoxypropan-2-yloxy)methyl)-2,6-dimethyl-2,3-dihydro-1H-inden-1-ol+(1RS,2SR)-2-((2-methoxypropan-2-yloxy)methyl)-2,6-dimethyl-2,3-dihydro-1H-inden-1-ol” the “repellent effect with increasing amount” value (Aedes aegypti) was “significant lower repellent effect than DEET or IR3535”.

In the case of Cc1ccc2c(c1)[C@H]1OC(C)(C)OC[C@@]1(C)C2 (racemic) [(4aRS,9bRS)-2,2,4a,8-tetramethyl-4,4a,5,9b-tetrahydroindeno[1,2-d][1,3]dioxine], the “number of mosquitoes landed” value (Aedes aegypti; 0.0016% in ethanol (Table 6)) was 59, the “number of mosquitoes landed” value (Aedes aegypti; 0.04% in ethanol (Table 6)) was 12 and the “number of mosquitoes landed” value (Aedes aegypti; 1% in ethanol (Table 6)) was 11.

For “(1RS,2RS)-2-(hydroxymethyl)-2,6-dimethyl-2,3-dihydro-1H-inden-1-ol+(1RS,2SR)-2-(hydroxymethyl)-2,6-dimethyl-2,3-dihydro-1H-inden-1-ol”, the “repellent effect with increasing amount” value (Aedes aegypti) was “significant lower repellent effect than DEET or IR3535”.

With “(2RS,4aRS,9bSR)-2-ethyl-8-methyl-4,4a,5,9b-tetrahydroindeno[1,2-d][1,3]dioxin + (2RS,4aSR,9bRS)-2-ethyl-8-methyl-4,4a,5,9b-tetrahydroindeno[1,2-d][1,3]dioxin” the “number of mosquitoes landed” value (Aedes aegypti; 0.0016% in ethanol (Table 6)) was 45, the “number of mosquitoes landed” value (Aedes aegypti; 0.04% in ethanol (Table 6)) was 24 and the “number of mosquitoes landed” value (Aedes aegypti; 1% in ethanol (Table 6)) was 10.

CC1(C)OC[C@H]2Cc3ccccc3[C@H]2O1 (racemic) [(4aRS,9bSR)-2,2-dimethyl-4,4a,5,9b-tetrahydroindeno[1,2-d][1,3]dioxin] was tested, and the “number of mosquitoes landed” value (Aedes aegypti; 0.0016% in ethanol (Table 6)) was 30, the “number of mosquitoes landed” value (Aedes aegypti; 0.04% in ethanol (Table 6)) was 1 and the “number of mosquitoes landed” value (Aedes aegypti; 1% in ethanol (Table 6)) was 0.

In the case of “(2RS,4aRS,9bSR)-2-methyl-4,4a,5,9b-tetrahydroindeno[1,2-d][1,3]dioxin + (2RS,4aSR,9bRS)-2-methyl-4,4a,5,9b-tetrahydroindeno[1,2-d][1,3]dioxin”, the “number of mosquitoes landed” value (Aedes aegypti; 0.0016% in ethanol (Table 6)) was 28, the “number of mosquitoes landed” value (Aedes aegypti; 0.04% in ethanol (Table 6)) was 2 and the “number of mosquitoes landed” value (Aedes aegypti; 1% in ethanol (Table 6)) was 2.
